Tests used:
[1] = tested on: cynomolgus monkey; experiment: Drug efficacy test in cynomolgus monkeys (plasma HDL cholesterol); assay type: in vivo; details: Macaca fascicularis, oral, single dose of 10 mg/kg, from AUC before administration and 24 hours after administration, read-out: Rate of increase in HDL level after administration of single dose
Protocol: Each test drug was dissolved in a propylene glycol (Sigma-Aldrich Corp.)-Tween 80 (Sigma-Aldrich Corp.) mixed solution [4/1 (v/v)] or a 0.5% (w/v) methylcellulose aqueous solution, and the solution was orally administered to a cynomolgus monkey for 1 or 7 days. At day 1 or 7 of the administration period, blood was collected before administration and after administration, and plasma was obtained. The content of cholesterol in the plasma was measured using a commercially available assay kit (Cholesterol-E Wako, Wako Pure Chemical Industries, Ltd.). The lipoprotein profile was analyzed by HPLC (column: LipopropakXL, manufactured by Tosoh Corp.). The contents of HDL cholesterol and non-HDL cholesterol were calculated according to the following calculation expression: Content of HDL cholesterol=Content of cholesterol in the plasma×(Peak area of HDL cholesterol/Total sum of peaks) Content of non-HDL cholesterol=Content of cholesterol in the plasma×(Peak area of non-HDL cholesterol/Total sum of peaks)

[2] = target: T1, LCAT (Homo sapiens, UniProt P04180); experiment: LCAT activity measurement (in vitro), [14C]cholesterol esterification with HDL3 fraction; assay type: biochemical; details: HDL3 fraction from plasma of a healthy person as enzyme source and acceptor; 37° C., approximately 16 hours; relative to sample without test drug; read-out: EC50 of LCAT activation
T1 construct: The obtained fraction was dialyzed against phosphate-buffered saline (pH 7.4) and used as an enzyme source and an acceptor for LCAT; from tissue; host or cells: HDL3 fraction (1.125 < specific gravity < 1.210 g/mL) of plasma from a healthy person
T1 sequence (P04180 25-440): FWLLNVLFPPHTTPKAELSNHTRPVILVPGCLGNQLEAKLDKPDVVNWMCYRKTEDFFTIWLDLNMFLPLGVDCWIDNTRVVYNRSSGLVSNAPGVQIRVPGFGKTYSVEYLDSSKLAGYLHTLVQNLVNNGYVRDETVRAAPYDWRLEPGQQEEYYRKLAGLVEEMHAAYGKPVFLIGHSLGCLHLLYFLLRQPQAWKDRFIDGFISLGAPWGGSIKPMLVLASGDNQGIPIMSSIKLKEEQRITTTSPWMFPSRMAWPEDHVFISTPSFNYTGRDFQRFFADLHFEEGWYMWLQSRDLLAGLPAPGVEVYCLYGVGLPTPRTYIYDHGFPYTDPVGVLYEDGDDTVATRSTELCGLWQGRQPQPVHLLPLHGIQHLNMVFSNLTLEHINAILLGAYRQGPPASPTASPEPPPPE
Protocol: A fraction composed of HDL3 (1.125 <specific gravity <1.210 g/mL) was obtained from the plasma of a healthy person by density gradient centrifugation. The obtained fraction was dialyzed against phosphate-buffered saline (pH 7.4) and used as an enzyme source and an acceptor for LCAT. Each test drug was prepared by dissolution in dimethyl sulfoxide. [^14C]Cholesterol containing DTNB (Ellman's reagent, final concentration: 0.5 mM), mercaptoethanol (final concentration: 12.5 mM), and 0.6% bovine serum albumin was added to phosphate-buffered saline (pH 7.4) containing 1 mg/mL HDL3, and the test drug was further added thereto at varying concentrations to adjust the whole amount to 80 μL. This mixture was incubated at 37° C. for approximately 16 hours. Then, a mixed solution of hexane and isopropanol (mixing ratio=3:2) was added thereto to stop the reaction. After stirring, the hexane layer was collected, and this layer was evaporated to dryness. A chloroform solution (concentration: 10 mg/mL) was added thereto, and the mixture was spotted onto a thin-layer silica gel plate and developed using a mixed solution of hexane, diethyl ether, and ethyl acetate (mixing ratio=85:15:2). The radioactivity of a portion corresponding to cholesterol oleate was measured using an imaging analyzer BAS-2500 (manufactured by Fujifilm Corp.). A sample non-supplemented with the test drug was similarly treated and assayed. The EC50 value of LCAT activation was calculated according to the expression given below relative to LCAT activity in the sample non-supplemented with the test drug.
[formula] • wherein X represents the logarithm of the concentration of the test drug; • Y represents the responsiveness (LCAT activity) of the test drug; • Top represents the maximum value (maximum plateau); • Bottom represents the minimum value (minimum plateau); and • EC50 represents the 50% effective concentration.

EC50 [2] [nM]	SMILES	change in vivo at 10 mg/kg [1] [%]
4	O=C1Nc2[nH]nc(C3CCN(c4cnc(C(F)(F)F)cn4)CC3)c2C(O)(C(F)(F)F)C1O (single isomer, unassigned; (+)) [Example 34, (+)-4,5-Dihydroxy-4-(trifluoromethyl)-3-{1-[5-(trifluoromethyl)pyrazin-2-yl]piperidin-4-yl}-1,4,5,7-tetrahydro-6H-pyrazolo[3,4-b]pyridin-6-one]	590
7	O=C1Nc2[nH]nc(C3CCN(c4ccc(C(F)(F)F)cn4)CC3)c2C(O)(C(F)(F)F)C1O (single isomer, unassigned; (+)) [Example 35, (+)-4,5-Dihydroxy-4-(trifluoromethyl)-3-{1-[5-(trifluoromethyl)pyridin-2-yl]piperidin-4-yl}-1,4,5,7-tetrahydro-6H-pyrazolo[3,4-b]pyridin-6-one]	482

Reference: patent US9796709B2, “5-hydroxy-4-(trifluoromethyl)pyrazolopyridine derivative” (Daiichi Sankyo Company, Limited, priority 2013, dated 2017)
